# Test results reported in ChEMBL document CHEMBL1149939, “Potential anxiolytic agents. 2. Improvement of oral efficacy for the pyrido[1,2-a]benzimidazole (PBI) class of GABA-A receptor modulators” (Bioorg Med Chem Lett, 1996).
# Where “and” joins values, the source holds several entries; their conditions need not be identical. Equal values may be shown once.
# Key:
# [1] = biological target: GABA-A receptor; anion channel; assay: Binding affinity against the BZD site of the Gamma-aminobutyric acid A receptor in rat cerebral cortex using radioligand ([3H]flunitrazepam) assay in the absence of Gamma-aminobutyric acid; type: tissue-based
# [2] = biological target: GABA-A receptor; anion channel; assay: Binding affinity against the BZD site of the Gamma-aminobutyric acid A receptor in rat cerebral cortex using radioligand ([3H]flunitrazepam) assay in the presence of Gamma-aminobutyric acid; type: tissue-based
# [3] = organism: Mus sp.; assay: Test ability to block the tonic-clonic component of seizures induced by metrazole in mice.; type: functional
# [4] = biological target: T1, GABA-A receptor; anion channel (Rattus norvegicus) (UniProt O09028+P15431+P18506+P18508+P19969+P20236+P23574+P23576+P28471+P28473+P30191+P62813+P63079+P63138+Q91ZM7+Q9ES14); assay: Relative binding in the presence and absence of GABA, (IC50-GABA /IC50+GABA); type: protein-complex assay
# [5] = biological target: T1, GABA-A receptor; anion channel (Rattus norvegicus); assay: Ratio of IC50 (no GABA) to IC50 (GABA) was measured as GABA Shift (GS); type: protein-complex assay
# [6] = Tested for its interaction with ethanol by its ability to potentiate the effect of ethanol on sleep.; type: functional; settings: read-out: MED
# [7] = organism: Rattus norvegicus; assay: Compound was tested for its ability to release (i.e., disinhibit) behavior that had been suppressed by punishment in rats (vogel conflict test).; type: functional; settings: read-out: MED
# [8] = organism: Rattus norvegicus; assay: The compound was tested for its ability to release (i.e., disinhibit) behavior that had been suppressed by punishment in rats (vogel conflict test).; type: functional; settings: read-out: MED
# [9] = organism: Rattus norvegicus; assay: animal or person; settings: read-out: MED
# [10] = organism: Rattus norvegicus; assay: animal or person; settings: read-out: MED; remark: listed apart in the source
# [11] = Tested for skeletal muscle relaxant activity using horizontal screen assay.; type: functional
# [12] = organism: Mus musculus; assay: Compound was tested for its ability to block the tonic-clonic component of seizures induced by metrazole in mice; Range = 10-30; type: functional
Compound,IC50 [1],IC50 [2],"ED50 ([3]; Mus sp., read-out: ED50)",GABA shift [5],further results
O=C(Nc1ccc(C(=O)O)cc1)C1=C(O)CCn2c1nc1ccccc12,> 10000 nM,> 10000 nM,–,–,ED50 [3]: >30 mg/kg and 10 mg/kg
O=C(Nc1ccc(O)cc1)C1=C(O)CCn2c1nc1ccccc12,46 nM,31 nM,–,–,ED50 [3]: >30 mg/kg and 10 mg/kg; GABA shift [4]: 1.5
O=C(Nc1cnccn1)C1=C(O)CCn2c1nc1ccccc12,360 nM,400 nM,> 10 mg/kg,0.9,–
O=C(Nc1ncccn1)C1=C(O)CCn2c1nc1ccccc12,54 nM,50 nM,–,1.1,–
O=C(Nc1ccncc1F)C1=C(O)CCn2c1nc1ccccc12,53 nM,20 nM,–,2.6,–
CN(C)c1ccccc1NC(=O)C1=C(O)CCn2c1nc1ccccc12,10000 nM,–,–,–,ED50 [3]: 4.9 mg/kg and 10 mg/kg
CCN1C2=C(C(=O)Nc3ccncc3)C(=O)CCN2c2ccccc21,80 nM,27 nM,–,3,minimal effective dose [6]: 10 mg/kg; minimal effective dose [7]: 3 mg/kg; minimal effective dose [8]: 3 mg/kg
O=C(Nc1cccnc1)C1=C(O)CCn2c1nc1ccccc12,51 nM,48 nM,–,1.1,–
Nc1ccccc1NC(=O)C1=C(O)CCn2c1nc1ccccc12,50 nM,33 nM,–,–,GABA shift [4]: 1.5
O=C(Nc1ccnc(Cl)c1)C1=C(O)CCn2c1nc1ccccc12,68 nM,65 nM,–,1.1,ED50 [3]: 3.7 mg/kg and 10 mg/kg
O=C(Nc1ccncc1Cl)C1=C(O)CCn2c1nc1ccccc12,220 nM,100 nM,–,2.2,–
CN1C(=O)CN=C(c2ccccc2)c2cc(Cl)ccc21 [DIAZEPAM],–,–,–,–,ED50 [3]: 0.11 mg/kg and 0.3 mg/kg; minimal effective dose [9]: 5 mg/kg; minimal effective dose [10]: 5 mg/kg
Cc1cnccc1NC(=O)C1=C(O)CCn2c1nc1ccccc12,7100 nM,12000 nM,> 10 mg/kg,0.6,–
O=C(NCc1cccnc1)C1=C(O)CCn2c1nc1ccccc12,150 nM,140 nM,> 10 mg/kg,1.1,–
O=C(Nc1ccncn1)C1=C(O)CCn2c1nc1ccccc12,480 nM,370 nM,> 10 mg/kg,1.3,ED50 [3]: 10 mg/kg
O=C(Nc1ccccn1)C1=C(O)CCn2c1nc1ccccc12,59 nM,36 nM,11.2 mg/kg,1.7,ED50 [3]: 10 mg/kg
CN(C)c1ccc(NC(=O)C2=C(O)CCn3c2nc2ccccc23)c(F)c1,120 nM,87 nM,–,1.4,–
CN(C)c1ccc(NC(=O)C2=C3N(C)c4ccccc4N3CCC2=O)cc1,29 nM,16 nM,–,–,GABA shift [4]: 1.8
O=C(Nc1ccncc1)C1=C(O)CCn2c1nc1ccccc12,160 nM,78 nM,–,2.1,ED50 ([11]; read-out: ED50): > 30 mg/kg; ED50 [3]: 3.1 mg/kg and 7.8 mg/kg; minimal effective dose [6]: > 60 mg/kg; minimal effective dose [7]: 10 mg/kg; minimal effective dose [8]: 3 mg/kg
O=C1CCN2C(=C1C(=O)Nc1ccccc1)Nc1ccccc12,–,–,5.2 mg/kg,–,ED50 [11]: >30 mg/kg and 10 mg/kg; ED50 [12]: 10 mg/kg; minimal effective dose [7]: > 10 mg/kg; minimal effective dose [8]: 10 mg/kg; GABA shift [4]: 1.5
C[n+]1ccc(NC(=O)C2=C(O)CCn3c2nc2ccccc23)cc1,6300 nM,3100 nM,> 10 mg/kg,2,–
CN(C)c1cccc(NC(=O)C2=C(O)CCn3c2nc2ccccc23)c1,37 nM,25 nM,–,1.5,–
Nc1ccc(NC(=O)C2=C(O)CCn3c2nc2ccccc23)cc1,13000 nM,3400 nM,–,3.8,–
CN(C)c1ccc(NC(=O)C2=C(O)CCn3c2nc2ccccc23)cc1,270 nM,210 nM,–,1.2,ED50 [11]: >30 mg/kg and 10 mg/kg; minimal effective dose [7]: 10 mg/kg; minimal effective dose [8]: 3 mg/kg
O=C(Nc1ccncc1)c1c(O)ccn2c1nc1ccccc12,260 nM,150 nM,> 10 mg/kg,1.7,–
Cc1cc(N(C)C)ccc1NC(=O)C1=C(O)CCn2c1nc1ccccc12,4000 nM,1500 nM,–,2.7,–
O=C(NCc1ccncc1)C1=C(O)CCn2c1nc1ccccc12,65 nM,69 nM,> 10 mg/kg,0.9,–
